Results taken from US20140309275A1, “Sphingosine Analogs, Compositions, and Methods Related Thereto” (Emory University, priority 2011, published 2014).
Read-outs that look alike come from different tables or passages of the source.

How the values were obtained:
Type in all cases: cell-based
[1] = test system: P. falciparum chloroquine resistant (CQ-R) W2 strain; assay: [3H]-labeled hypoxanthine uptake assay, P. falciparum W2; details: for IC50: Plasmodium falciparum; for IC50 W2: Table 1
Excerpt: (§1) The [^3H]-labeled hypoxanthine uptake method was utilized to assay the effectiveness of our sphingoid base analogs in vitro for their ability to inhibit the growth and replication of malaria parasites in RBCs. […] The simian malaria parasite P. knowlesi has also been recognized as a human pathogen of public health concern in South East Asia, and it can be cultured effectively in vitro. This species was therefore included to probe the potential of multi-species efficacy within this compound class.
(§2) Cryopreserved iRBCs were provided by Dr. John W. Barnwell from the Centers for Disease Control and Prevention and maintained in in vitro culture as described in Trager & Jensen, Science 1976, 193 (4254), 673-5.
(§3) Compounds in Table 1 were dissolved in 70% 200-proof pharmaceutical grade ethanol, and a working solution of 0.2 mg/mL was prepared using hypoxanthine- and gentamicin-free incomplete RPMI 1640 (Gibco). Compounds in Table 2 were dissolved in 200 proof pharmaceutical grade ethanol at a concentration of 50 μM and then conjugated to BSA (Sigma) as described.^5 A working solution of 0.2 mg/mL was prepared using hypoxanthine- and gentamicin-free incomplete RPMI 1640 (Gibco). Two compounds were tested per plate in triplicate starting at 0.2 mg/mL and diluted two-fold down to 0.019 μg/mL using hypoxanthine- and gentamicin-free RPMI.
(§4) Parasite inoculum was prepared by mixing parasitized blood, uninfected 0+RBCs (for P. falciparum strains) or rhesus RBCs (for P. knowlesi) and culture medium (deficient in hypoxanthine and gentamicin) to a final concentration of 1% parasitemia and 1% haematocrit. A negative control was prepared by diluting uninfected erythrocytes to 1% haematocrit in culture medium. [^3H]-labeled hypoxanthine was added at 24 h (for P. falciparum strains) or 12 h (P. knowlesi) and the culture was collected 48 h or 12 h later for P. falciparum or P. knowlesi, respectively. [^3H] uptake was measured by using a scintillation spectrophotometer (Wallac Oy 1450 MicroBeta reader).
(§5) Triplicate wells were used to calculate the IC50 for each compound using the software XLFit v5.2 using the sigmoidal model 601. Average and standard deviations were calculated using Microsoft Excel.

[2] = test system: P. falciparum chloroquine susceptible (CQ-S) D6 strain; assay: [3H]-labeled hypoxanthine uptake assay, P. falciparum D6; details: for IC50: Plasmodium falciparum; for IC50 D6: Table 1
Excerpt: as §1, §2, §3, §4, §5

[3] = test system: PC-3 prostate cancer cells; assay: WST-1 cytotoxicity assay, PC-3; details: 24 h treatment
Description: (§6) Prostate cancer cells were treated with enigmol or analogue for 24 h, and cytotoxicity was assessed by WST-1 assay. cLogPs were calculated with QuikProp on Maestro.

[4] = test system: LNCaP prostate cancer cells; assay: WST-1 cytotoxicity assay, LNCaP; details: Homo sapiens, 24 h treatment
Description: as §6

[5] = test system: P. knowlesi H strain; assay: [3H]-labeled hypoxanthine uptake assay, P. knowlesi; details: Table 1, compounds dissolved in 70% ethanol, not BSA-conjugated; for IC50: Plasmodium knowlesi
Excerpt: as §1, with “class. The data were generated with the known antimalarial drugs chloroquine and mefloquine as controls.” for “class.”
The H strain of P. knowlesi has been adapted to in vitro culture using Macaca mulatta (rhesus monkey) RBCs essentially as described in Kocken et al., Infect Immun 2002, 70 (2), 655-60 (the media was supplemented with 10% human AB serum).
Chloroquine (Sigma) and mefloquine (Sigma) were used as controls. Compounds in Table 1 were dissolved in 70% 200-proof pharmaceutical grade ethanol, and a working solution of 0.2 mg/mL was prepared using hypoxanthine- and gentamicin-free incomplete RPMI 1640 (Gibco). Compounds in Table 2 were dissolved in 200 proof pharmaceutical grade ethanol at a concentration of 50 μM and then conjugated to BSA (Sigma) as described.^5 A working solution of 0.2 mg/mL was prepared using hypoxanthine- and gentamicin-free incomplete RPMI 1640 (Gibco). Two compounds were tested per plate in triplicate starting at 0.2 mg/mL and diluted two-fold down to 0.019 μg/mL using hypoxanthine- and gentamicin-free RPMI.
as §4, §5

[6] = W2, Table 2, compounds conjugated to BSA, read-out: IC50 W2
[7] = D6, Table 2, compounds conjugated to BSA, read-out: IC50 D6
[8] = W2, Table 1, compounds dissolved in 70% ethanol, not BSA-conjugated, read-out: IC50 W2
[9] = D6, Table 1, compounds dissolved in 70% ethanol, not BSA-conjugated, read-out: IC50 D6
[10] = compounds dissolved in 70% ethanol, not BSA-conjugated

Which IC50 [1, 6] does the source give for `CCCCCCCCCCCCC[C@H](O)C[C@H](O)C(C)(C)N` (racemic) [ESPD-0560, (+/−)-syn-2 amino-2-methyloctadecane-3,5-diol] here?
The IC50 was 4.67 ± 1 µM.

What about the IC50 [2, 7] of the same compound?
The IC50 was 5.2 ± 3 µM.

And the IC50 [3]?
The IC50 was 10 µM.

What about the IC50 [4] of the same compound?
The IC50 was 23 µM.

Which IC50 [1, 6] does the source give for `CCCCCCCCCCCCC[C@@H](O)C[C@H](O)C(C)(C)N` (racemic) [ESPD-0561, (+/−)-anti-2 amino-2-methyloctadecane-3,5-diol] here?
The IC50 was 7.43 µM.

What about the IC50 [2, 7] of the same compound?
The IC50 was 4.1 ± 0.7 µM.

What about the IC50 [3] of the same compound?
The IC50 was 10 µM.

What about the IC50 [4] of the same compound?
Its IC50 is 25 µM.

Which IC50 [1, 6] does the source give for `CCCCCCCCCCCCC[C@@H](O)C[C@H](O)C1(N)CC1` (racemic) [ESPD-0859, (+/−)-anti-1-(1-aminocyclopropyl)hexadecane-1,3-diol] here?
The IC50 was 7.2 ± 4 µM.

What about the IC50 [2, 7] of the same compound?
The IC50 was 11.2 µM.

Which IC50 [1, 6] does the source give for `CCCCCCCCCCCCC[C@H](O)C[C@H](O)C1(N)CC1` (racemic) [ESPD-0860, (+/−)-syn1-(1-aminocyclopropyl)hexadecane-1,3-diol] here?
Its IC50 is 9.9 ± 7 µM.

What about the IC50 [2, 7] of the same compound?
The IC50 was 5.5 µM.

Which IC50 [1, 6] does the source give for `CCCCCCCCCCCCC[C@H](O)C[C@H](O)C(C)(C)NC` (racemic) [ESPD-1158, (+/−)-syn-2-methyl-2-(methylamino)octadecane-3,5-diol] here?
Its IC50 is 0.25 µM.

And the IC50 ([1]; W2, text b107, BSA-conjugated, strain not stated (matches W2 of Table 2), read-out: IC50)?
Its IC50 is 0.25 µM.

What about the IC50 [2, 7] of the same compound?
The IC50 was 0.7 ± 0.5 µM.

`CCN(CC)CCCC(C)Nc1ccnc2cc(Cl)ccc12` (centres unmarked) [Chloroquine, reference compound] was tested. Which IC50 ([1]; W2, read-out: IC50 W2, Table 1, compounds dissolved in 70% ethanol, not BSA-conjugated) did it give?
The IC50 was 0.18 µM.

And the IC50 ([1]; W2, read-out: IC50 W2, Table 2, compounds conjugated to BSA)?
Its IC50 is 0.093 µM.

And the IC50 ([2]; D6, read-out: IC50 D6, Table 1, compounds dissolved in 70% ethanol, not BSA-conjugated)?
Its IC50 is 0.02 µM.

And the IC50 ([2]; D6, read-out: IC50 D6, Table 2, compounds conjugated to BSA)?
Its IC50 is 0.011 µM.

`CCCCCCCCCCCCC[C@@H](O)C[C@H](O)[C@H](C)N` [ESPD-0503] was tested. Which IC50 [1, 8] did it give?
Its IC50 is 8.17 ± 1.8 µM.

What about the IC50 [2, 9] of the same compound?
Its IC50 is 12.7 ± 1.2 µM.

What about the IC50 [5] of the same compound?
The IC50 was 17.6 ± 1.8 µM.

What does the source list for `CCCCCCCCCCCCC[C@H](O)C[C@@H](O)[C@H](C)N` [ESPD-0505, (2S,3R,5S)-2-Aminooctadecane-3,5-diol]?
IC50 [1, 8]: 9.22 ± 1.6 µM; IC50 [2, 9]: 17.8 ± 1.1 µM; IC50 [5]: 20.3 ± 2 µM

Which IC50 [1, 8] does the source give for `CCCCCCCCCCCCC[C@H](O)C[C@H](O)[C@H](C)NC(C)=O` [ESPD-0506, N-((2S,3S,5S)-3,5-dihydroxyoctadecan-2-yl)acetamide] here?
The IC50 was 13.1 ± 3.7 µM.

What about the “IC50 W2” value [1, 10] of the same compound?
The value was “no activity”.

And the IC50 [2, 9]?
Its IC50 is 11.1 ± 0.5 µM.

What about the “IC50 D6” value [2, 10] of the same compound?
The value was “no activity”.

What about the IC50 [5] of the same compound?
Its IC50 is greater than 58 µM.

What about the “IC50 P. knowlesi” value [5] of the same compound?
The value was “no activity”.

With `CCCCCCCCCCCCC[C@H](O)C[C@H](O)[C@H](C)N(C)C` [ESPD-0513, (2S,3S,5S)-2-(dimethylamino)octadecane-3,5-diol] as the compound, how does the IC50 [1, 8] read?
The IC50 was 4.42 ± 1.1 µM.

What about the IC50 [2, 9] of the same compound?
Its IC50 is 7 ± 0.6 µM.

What about the IC50 [5] of the same compound?
Its IC50 is 6.83 ± 0.09 µM.

For `CCCCCCCCCCCCCCCC(=O)N[C@@H](C)[C@@H](O)C[C@@H](O)CCCCCCCCCCCCC` [ESPD-0514, N-((2S,3S,5S)-3,5-dihydroxyoctadecan-2-yl)palmitamide], which IC50 [1, 8] is on record?
The IC50 was greater than 37 µM.

And the “IC50 W2” value [1, 10]?
Its value is “no activity”.

What about the IC50 [2, 9] of the same compound?
Its IC50 is greater than 37 µM.

And the “IC50 D6” value [2, 10]?
The value was “no activity”.

And the IC50 [5]?
Its IC50 is greater than 37 µM.

And the “IC50 P. knowlesi” value [5]?
The value was “no activity”.

`CCCCCCCCCCCCC[C@H](O)C[C@H](O)[C@@H]1CCCN1` [ESPD-0522, (1S,3S)-1-((S)-pyrrolidin-2-yl)hexadecane-1,3-diol] was tested. Which IC50 [1, 8] did it give?
The IC50 was 4.39 ± 1.5 µM.

And the IC50 [2, 9]?
Its IC50 is 9.7 ± 1 µM.

And the IC50 [5]?
The IC50 was 6.25 ± 0.27 µM.

For `CCCCCCCCCCCCC[C@H](O)C[C@@H](O)[C@H](C)NC` [ESPD-0559, (2S,3R,5S)-2-(methylamino)octadecane-3,5-diol], which IC50 [1, 8] is on record?
The IC50 was 8.09 ± 0.24 µM.

And the IC50 [2, 9]?
Its IC50 is 14.6 ± 0.64 µM.

With `CCCCCCCCCCCCCC(O)C/C(=N\O)C(C)(C)N` (centres unmarked) [ESPD-0858, (+/−,E)-2-amino-5-hydroxy-2-methyloctadecan-3-one oxime] as the compound, how does the IC50 [1, 6] read?
Its IC50 is 10 ± 2.7 µM.

And the IC50 [2, 7]?
Its IC50 is 7.44 µM.

What about the IC50 [3] of the same compound?
The IC50 was 24 µM.

What about the IC50 [4] of the same compound?
Its IC50 is 24 µM.

What does the source list for `C[C@H](N)[C@@H](O)C[C@@H](O)CCCCCCCCCCCCC(F)(F)F` [ESPD-01183]?
IC50 [3]: 13 µM; IC50 [4]: 13 µM

For `C[C@H](N)[C@@H](O)C[C@@H](O)CCCCCC#CCCCCCC(F)(F)F` [ESPD-01184], which IC50 [3] is on record?
The IC50 was 92 µM.

What about the IC50 [4] of the same compound?
Its IC50 is greater than 100 µM.

`CCCCCCC#CCCCCC[C@H](O)C[C@H](O)[C@H](C)N` [ESPD-01185] was tested. Which IC50 [3] did it give?
Its IC50 is greater than 100 µM.

And the IC50 [4]?
Its IC50 is greater than 100 µM.

What does the source list for `C[C@H](N)[C@@H](O)C[C@@H](O)CCCCC/C=C/CCCCCC(F)(F)F` [ESPD-01186]?
IC50 [3]: 27 µM; IC50 [4]: 14 µM

How did the IC50 [3] turn out when `CCCCCC/C=C/CCCCC[C@H](O)C[C@H](O)[C@H](C)N` [ESPD-01187] was run?
Its IC50 is 33 µM.

And the IC50 [4]?
The IC50 was 19 µM.

With `CCCCCC/C=C\CCCCC[C@H](O)C[C@H](O)[C@H](C)N` [ESPD-01192] as the compound, how does the IC50 [3] read?
Its IC50 is 25 µM.

And the IC50 [4]?
Its IC50 is 19 µM.

How did the IC50 [3] turn out when `CCCCCCCCCCCCC(F)(F)[C@H](O)C[C@H](O)[C@H](C)N` [ESPD-01406, (2S,3S,5R)-2-amino-6,6-difluorooctadecane-3,5-diol] was run?
The IC50 was 9 µM.

And the IC50 [4]?
The IC50 was 10 µM.

How did the IC50 [3] turn out when `CCCCCCCCCCCCC(F)(F)[C@@H](O)C[C@H](O)[C@H](C)N` [ESPD-01407, (2S,3S,5S)-2-amino-6,6-difluorooctadecane-3,5-diol] was run?
Its IC50 is 9 µM.

And the IC50 [4]?
The IC50 was 10 µM.

`CCCCCCCCCCCCC(F)(F)[C@H](O)C[C@@H](O)[C@H](C)N` [ESPD-01408, (2S,3R,5R)-2-amino-6,6-difluorooctadecane-3,5-diol] was tested. Which IC50 [3] did it give?
Its IC50 is 9 µM.

What about the IC50 [4] of the same compound?
Its IC50 is 10 µM.

Which results are given for `CCCCCCCCCCCCC(F)(F)[C@@H](O)C[C@@H](O)[C@H](C)N` [ESPD-01409, (2S,3R,5S)-2-amino-6,6-difluorooctadecane-3,5-diol]?
IC50 [3]: 10 µM; IC50 [4]: 10 µM

What does the source list for `OC(c1cc(C(F)(F)F)nc2c(C(F)(F)F)cccc12)C1CCCCN1` (centres unmarked) [Mefloquine, reference compound]?
IC50 [1, 6]: 0.004 µM; IC50 [5]: 0.04 µM
